Experimental data reported in US20260258084A1, “New Peptides as Selective IL-23 Receptor Antagonists” (Sanofi, priority 2022, published 2026).
In brackets after ≈: the same amount, converted by molar mass. Where two headings read alike, the source gives them in different places. Starred links: 1 amine or outer side, 2 acyl side, 3 side chain; linkers in the order of their positions; H or OH if unused. Positions of bridges follow the written chain, without caps; N, C: chain ends. Non-standard residues stand in square brackets, D forms with d. Residues, ends and D or L forms follow the SMILES beside them. *: point of attachment. X3 = CN(CCCCC(=O)N[C@@H](CS[*:2])C(=O)[*:1])[*:3]; Trp(7-Me) = Cc1cccc2c(C[C@H](N)C(=O)O)c[nH]c12; X1 = O=C(CCCCN[*:3])N[C@@H](CS[*:2])C(=O)[*:1]; αMeLys(Me2) = CN(C)CCCC[C@](C)(N)C(=O)O; X2 = CN(C)[C@@H](CCCCN[*:1])C(=O)[*:2]; 2Nal = N[C@@H](Cc1ccc2ccccc2c1)C(=O)O; AEF = NCCOc1ccc(C[C@H](N)C(=O)O)cc1; 3Pal = N[C@@H](Cc1cccnc1)C(=O)O; X4 = CN(CCCCCC(=O)[*:2])[*:1]; αMeL = CC(C)C[C@](C)(N)C(=O)O; Suc = O=C(CCC(=O)[*:2])[*:1]; Thp = NC1(C(=O)O)CCOCC1; Me2NCH2CH2 = CN(C)CC*; Aib = CC(C)(N)C(=O)O; Ava = NCCCCC(=O)O; βAla = NCCC(=O)O; Sar = CNCC(=O)O

Experiment: Solubility testing of peptides at different pH
Type: physicochemical
Conditions: target concentration 1 mg/ml, 2 hours agitation
How it was run: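 Four buffers were used: 50 mM HCl pH 1.2 and 50 mM phosphate at pH 6.5, 7.4 and 9.0, each receiving dried-down compound at a 1 mg/mL target. After 2 h gentle shaking and 0.45 μm filtration, UV peak areas were compared with a DMSO standard curve of known concentration, allowing for extinction coefficients.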

[1] = 50 mM HCl buffer, 50 mM HCl pH 1.2, read-out: Solubility Buffer pH 1.2
[2] = 50 mM phosphate buffer pH 6.5, read-out: Solubility Buffer pH 6.5
[3] = 50 mM phosphate buffer pH 7.4, read-out: Solubility Buffer pH 7.4
[4] = 50 mM phosphate buffer pH 9.0, read-out: Solubility Buffer pH 9.0

| Compound | solubility at 2 h [1] [µg/mL] | solubility at 2 h [2] [µg/mL] | solubility at 2 h [3] [µg/mL] | solubility at 2 h [4] [µg/mL] |
| --- | --- | --- | --- | --- |
| CC(=O)N[C@H]1CCCCNC(=O)[C@@H]2CSSC[C@H](NC(=O)[C@H](CCC(N)=O)NC(=O)[C@H](Cc3c[nH]c4ccccc34)NC1=O)C(=O)N[C@@H](Cc1ccc(OCCN(C)C)cc1)C(=O)N[C@@H](Cc1ccc3ccccc3c1)C(=O)NC1(CCOCC1)C(=O)N[C@H](C(=O)N[C@@H](C)C(=O)N[C@H](CC(C)C)C(N)=O)CCC(=O)NCCCCC(=O)N2 [compound 33] (Ac-KWQCY(Me2NCH2CH2)[2Nal][Thp]EA[dL]-NH2; linker 1-4-8 via X1) | ≥ 1000 | ≥ 890 | 640 (≈ 386 µM) | 130 (≈ 78.4 µM) |
| CC(=O)NCCCC[C@@H]1NC(=O)[C@H](Cc2c[nH]c3c(C)cccc23)NC(=O)[C@H]([C@@H](C)O)NC(=O)[C@H](CC(N)=O)NC(=O)[C@@H]2CSSC[C@H](NC1=O)C(=O)N[C@@H](Cc1ccc(OCCN(C)C)cc1)C(=O)N[C@@H](Cc1ccc3ccccc3c1)C(=O)NC(C)(C)C(=O)N[C@H](C(=O)N[C@@H](CC(N)=O)C(=O)N[C@@H](Cc1c[nH]cn1)C(=O)N(C)CC(N)=O)CCC(=O)NCCCCC(=O)N2 [compound 45] ([Ava]CNT[Trp(7-Me)]K(Ac)CY(Me2NCH2CH2)[2Nal][Aib]ENH[Sar]-NH2; disulfide 2-7; lactam N-11) | ≥ 1160 | ≥ 1060 | ≥ 1180 | 350 (≈ 189 µM) |
| CC(=O)NCCCC[C@@H]1NC(=O)[C@H](Cc2c[nH]c3c(C)cccc23)NC(=O)[C@H]([C@@H](C)O)NC(=O)[C@H](CC(N)=O)NC(=O)[C@@H]2CSSC[C@H](NC1=O)C(=O)N[C@@H](Cc1ccc(OCCN(C)C)cc1)C(=O)N[C@@H](Cc1ccc3ccccc3c1)C(=O)N[C@@](C)(CC(C)C)C(=O)N[C@H](C(=O)N[C@@H](CC(N)=O)C(=O)N[C@@H](Cc1c[nH]cn1)C(=O)NCCC(N)=O)CCC(=O)NCCCCC(=O)N2 [compound 50] ([Ava]CNT[Trp(7-Me)]K(Ac)CY(Me2NCH2CH2)[2Nal][αMeL]ENH[βAla]-NH2; disulfide 2-7; lactam N-11) | ≥ 1000 | ≥ 980 | 670 (≈ 353 µM) | 440 (≈ 232 µM) |
| CC(=O)N[C@H]1CCCCNC(=O)[C@@H]2CSSC[C@H](NC(=O)[C@H](CCC(N)=O)NC(=O)[C@H](Cc3c[nH]c4ccccc34)NC1=O)C(=O)N[C@@H](Cc1ccc(OCCN)cc1)C(=O)N[C@@H](Cc1ccc3ccccc3c1)C(=O)NC1(CCOCC1)C(=O)N[C@H](C(=O)N[C@@H](CC(N)=O)C(=O)NCC(N)=O)CCC(=O)N(C)CCCCC(=O)N2 [compound 16] (Ac-KWQC[AEF][2Nal][Thp]ENG-NH2; linker 1-4-8 via X3) | ≥ 1070 | ≥ 950 | ≥ 1000 | 810 (≈ 496 µM) |
| CC(=O)N[C@H]1CCCCNC(=O)[C@@H]2CSSC[C@H](NC(=O)[C@H](CCC(N)=O)NC(=O)[C@H](Cc3c[nH]c4ccccc34)NC1=O)C(=O)N[C@@H](Cc1ccc(OCCN)cc1)C(=O)N[C@@H](Cc1ccc3ccccc3c1)C(=O)N[C@@](C)(CC(C)C)C(=O)N[C@H](C(=O)N[C@@H](C)C(=O)N[C@H](CC(C)C)C(N)=O)CCC(=O)N(C)CCCCC(=O)N2 [compound 44] (Ac-KWQC[AEF][2Nal][αMeL]EA[dL]-NH2; linker 1-4-8 via X3) | < 10 | < 10 | < 10 | < 10 |
| CC(=O)N[C@H]1CCCCNC(=O)[C@@H]2CSSC[C@H](NC(=O)[C@H](CCC(N)=O)NC(=O)[C@H](Cc3c[nH]c4ccccc34)NC1=O)C(=O)N[C@@H](Cc1ccc(OCCN)cc1)C(=O)N[C@@H](Cc1ccc3ccccc3c1)C(=O)NC1(CCOCC1)C(=O)N[C@H](C(=O)N[C@@H](CC(N)=O)C(=O)N[C@@H](CC(N)=O)C(N)=O)CCC(=O)N(C)CCCCC(=O)N2 [compound 13] (Ac-KWQC[AEF][2Nal][Thp]ENN-NH2; linker 1-4-8 via X3) | ≥ 1050 | ≥ 1070 | 770 (≈ 456 µM) | ≥ 990 |
| CC(=O)N[C@H]1CCCCNC(=O)[C@@H]2CSSC[C@H](NC(=O)[C@H](CCC(N)=O)NC(=O)[C@H](Cc3c[nH]c4ccccc34)NC1=O)C(=O)N[C@@H](Cc1ccc(OCCN)cc1)C(=O)N[C@@H](Cc1ccc3ccccc3c1)C(=O)NC1(CCOCC1)C(=O)N[C@H](C(=O)N[C@@H](C)C(=O)N[C@H](CC(C)C)C(N)=O)CCC(=O)N(C)CCCCC(=O)N2 [compound 34] (Ac-KWQC[AEF][2Nal][Thp]EA[dL]-NH2; linker 1-4-8 via X3) | ≥ 970 | ≥ 910 | 270 (≈ 164 µM) | 140 (≈ 85.1 µM) |
| CC(C)C[C@@H](NC(=O)[C@H](CC(N)=O)NC(=O)[C@@H]1CC(=O)N(C)CCCCCC(=O)N[C@H]2CSSC[C@H](NC(=O)[C@H](CCC(N)=O)NC(=O)[C@H](Cc3c[nH]c4ccccc34)NC(=O)[C@H]([C@@H](C)O)NC(=O)[C@H](CC(N)=O)NC2=O)C(=O)N[C@@H](Cc2ccc(OCCN(C)C)cc2)C(=O)N[C@@H](Cc2ccc3ccccc3c2)C(=O)N[C@@](C)(CC(C)C)C(=O)N1)C(N)=O [compound 40] ([X4]CNTWQCY(Me2NCH2CH2)[2Nal][αMeL]DN[dL]-NH2; disulfide 2-7; lactam N-11) | < 10 | < 10 | < 10 | < 10 |
| CC(=O)NCCCC[C@@H]1NC(=O)[C@H](Cc2c[nH]c3c(C)cccc23)NC(=O)[C@H]([C@@H](C)O)NC(=O)[C@H](CC(N)=O)NC(=O)[C@@H]2CSSC[C@H](NC1=O)C(=O)N[C@@H](Cc1ccc(OCCN(C)C)cc1)C(=O)N[C@@H](Cc1ccc3ccccc3c1)C(=O)NC(C)(C)C(=O)N[C@H](C(=O)N[C@@H](CC(N)=O)C(=O)N[C@@H](Cc1c[nH]cn1)C(=O)NCCC(N)=O)CCC(=O)NCCCCC(=O)N2 [compound 48] ([Ava]CNT[Trp(7-Me)]K(Ac)CY(Me2NCH2CH2)[2Nal][Aib]ENH[βAla]-NH2; disulfide 2-7; lactam N-11) | ≥ 1060 | ≥ 1040 | ≥ 990 | ≥ 1040 |
| CC(=O)NCCCC[C@@H]1NC(=O)[C@H](Cc2c[nH]c3c(C)cccc23)NC(=O)[C@H]([C@@H](C)O)NC(=O)[C@H](CC(N)=O)NC(=O)[C@@H]2CSSC[C@H](NC1=O)C(=O)N[C@@H](Cc1ccc(OCCN(C)C)cc1)C(=O)N[C@@H](Cc1ccc3ccccc3c1)C(=O)NC1(CCOCC1)C(=O)N[C@H](C(=O)N[C@@H](CC(N)=O)C(=O)N[C@@H](Cc1c[nH]cn1)C(=O)NCCC(N)=O)CCC(=O)NCCCCC(=O)N2 [compound 49] ([Ava]CNT[Trp(7-Me)]K(Ac)CY(Me2NCH2CH2)[2Nal][Thp]ENH[βAla]-NH2; disulfide 2-7; lactam N-11) | ≥ 1110 | ≥ 1090 | ≥ 1050 | ≥ 1040 |
| CC(=O)NCCCC[C@@H]1NC(=O)[C@H](Cc2c[nH]c3ccccc23)NC(=O)[C@@H](N(C)C)CCCCNC(=O)[C@@H]2CSSC[C@H](NC1=O)C(=O)N[C@@H](Cc1ccc(OCCN(C)C)cc1)C(=O)N[C@@H](Cc1ccc3ccccc3c1)C(=O)N[C@@](C)(CCCCN(C)C)C(=O)N[C@H](C(=O)N[C@@H](CC(N)=O)C(=O)N[C@@H](Cc1cccnc1)C(=O)N(C)CC(N)=O)CCC(=O)NCCCCC(=O)N2 [compound 36] ([Ava]C[X2]WK(Ac)CY(Me2NCH2CH2)[2Nal][αMeLys(Me2)]EN[3Pal][Sar]-NH2; disulfide 2-6; lactam N-10) | ≥ 1010 | ≥ 1100 | ≥ 1080 | ≥ 1150 |
| CC(=O)NCCCC[C@@H]1NC(=O)[C@H](Cc2c[nH]c3c(C)cccc23)NC(=O)[C@H]([C@@H](C)O)NC(=O)[C@H](CC(N)=O)NC(=O)[C@@H]2CSSC[C@H](NC1=O)C(=O)N[C@@H](Cc1ccc(OCCN(C)C)cc1)C(=O)N[C@@H](Cc1ccc3ccccc3c1)C(=O)NC1(CCOCC1)C(=O)N[C@H](C(=O)N[C@@H](CC(N)=O)C(=O)N[C@@H](Cc1cccnc1)C(N)=O)CCC(=O)NCCCCC(=O)N2 [compound 51] ([Ava]CNT[Trp(7-Me)]K(Ac)CY(Me2NCH2CH2)[2Nal][Thp]EN[3Pal]-NH2; disulfide 2-7; lactam N-11) | ≥ 1020 | ≥ 930 | 430 (≈ 234 µM) | 100 (≈ 54.4 µM) |
| CC(=O)N[C@H]1CCCCNC(=O)[C@@H]2CSSC[C@H](NC(=O)[C@H](CCC(N)=O)NC(=O)[C@H](Cc3c[nH]c4ccccc34)NC1=O)C(=O)N[C@@H](Cc1ccc(OCCN)cc1)C(=O)N[C@@H](Cc1ccc3ccccc3c1)C(=O)NC(C)(C)C(=O)N[C@H](C(=O)N[C@@H](C)C(=O)N[C@H](CC(C)C)C(N)=O)CCC(=O)N(C)CCCCC(=O)N2 [compound 19] (Ac-KWQC[AEF][2Nal][Aib]EA[dL]-NH2; linker 1-4-8 via X3) | 10 (≈ 6.24 µM) | 20 (≈ 12.5 µM) | < 10 | < 10 |
| CC(=O)NCCCC[C@@H]1NC(=O)[C@H](Cc2c[nH]c3c(C)cccc23)NC(=O)[C@H]([C@@H](C)O)NC(=O)[C@H](CC(N)=O)NC(=O)[C@@H]2CSSC[C@H](NC1=O)C(=O)N[C@@H](Cc1ccc(OCCN(C)C)cc1)C(=O)N[C@@H](Cc1ccc3ccccc3c1)C(=O)N[C@@](C)(CC(C)C)C(=O)N[C@H](C(=O)N[C@@H](CC(N)=O)C(=O)N[C@@H](Cc1c[nH]cn1)C(N)=O)CCCCNC(=O)CCC(=O)N2 [compound 23] (CNT[Trp(7-Me)]K(Ac)CY(Me2NCH2CH2)[2Nal][αMeL]KNH-NH2; disulfide 1-6; linker N-10 via Suc) | ≥ 970 | 980 (≈ 536 µM) | 210 (≈ 115 µM) | 60 (≈ 32.8 µM) |
